These are literature values, as cited in article PMC8799869, “D-enantiomers of CATH-2 enhance the response of macrophages against Streptococcus suis serotype 2” (Journal of Advanced Research, 2021).

The conditions of this data set: intravenous administration; blood and peritoneum; cited from earlier work. From the text: In this study injection of D-C(1–21) reduced disease severity and increased the survival rate, although the differ ...

On to LL-37, for which the “survival and bacterial load in septic mice” value was “improved the survival and reduced the bacterial load”.
